In patent US10654867B2 (Genentech, Inc., priority 2016, dated 2020):

What follows are compounds tested against T1, estrogen receptor alpha (ESR1) in MCF7 breast cancer cells (Homo sapiens, UniProt P03372) (assay: Breast Cancer Cell ERa High Content Fluorescence Imaging Degradation Assay (ER-alpha MCF7 HCS)). Conditions: 4 hours, plateau of the maximal effect, DMSO and fulvestrant define 0% and 100% change in ESR1, Table 1a.
T1 sequence (P03372 1-595): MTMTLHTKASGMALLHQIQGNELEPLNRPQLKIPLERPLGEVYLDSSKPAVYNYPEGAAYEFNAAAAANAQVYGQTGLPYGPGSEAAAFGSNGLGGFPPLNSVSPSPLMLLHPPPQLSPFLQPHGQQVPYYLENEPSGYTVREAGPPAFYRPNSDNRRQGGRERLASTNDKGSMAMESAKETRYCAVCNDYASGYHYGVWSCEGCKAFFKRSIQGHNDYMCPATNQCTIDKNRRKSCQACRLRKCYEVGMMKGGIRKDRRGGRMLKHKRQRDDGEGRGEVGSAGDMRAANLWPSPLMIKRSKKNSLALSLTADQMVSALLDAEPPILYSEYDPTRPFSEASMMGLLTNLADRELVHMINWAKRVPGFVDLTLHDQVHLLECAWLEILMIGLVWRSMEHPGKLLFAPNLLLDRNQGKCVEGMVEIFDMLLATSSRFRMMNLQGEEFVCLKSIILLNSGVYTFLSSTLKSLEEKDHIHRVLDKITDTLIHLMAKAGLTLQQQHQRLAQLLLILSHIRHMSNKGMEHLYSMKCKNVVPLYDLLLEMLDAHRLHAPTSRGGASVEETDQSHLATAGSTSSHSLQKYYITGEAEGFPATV
Assay type: cell-based
Set-up: endogenous in cells; host or cells: MCF7 breast cancer cells; key to ERalpha (WT) MCF7HCS (Sinf): % change in ERα level; DMSO = 0%, fulvestrant = 100% change
Protocol: All of the exemplary Formula I, II, and III compounds in Tables 1a and 1b were made and characterized by LCMS [M+H]^+ (liquid chromatography mass spectroscopy) with detection of parent ion. All of the exemplary Formula I, II, and III compounds in Tables 1a and 1b were tested for binding to ERa (Estrogen Receptor alpha) and biological activity according to the assays, protocols, and procedures of Examples 901-907. ER-alpha MCF7 HCS Sinf (%) values in Tables 1a and 1b were measured by the Breast Cancer Cell ERa High Content Fluorescence Imaging Degradation Assay of Example 901. ER-alpha MCF7 HCS EC50 (μM) values in Tables 1a and 1b were measured by the in vitro cell proliferation assays described in Examples 902 and 903. The rat uterine wet weight assays of Examples 906 and 907 allow rapid determination of compound antagonist activity in an ER responsive tissue (immature rat uterus) while competing against the native ER ligand estradiol, i.e. antagonist mode (Ashby, J.; et al (1997) Regulatory toxicology and pharmacology: RTP, 25 (3):226-31). Exemplary Formula I, II, and III compounds in Tables 1a and 1b have the following structures, corresponding names (ChemBioDraw, Version 12.0.2, CambridgeSoft Corp., Cambridge Mass.), and biological activity. Where more than one name is associated with a Formula I, II, and III compound or intermediate, the chemical structure shall define the compound.
MCF7 breast cancer cells were seeded on day 1 at a density of 10,000 cells per well in 384 well poly-lysine coated tissue culture plate (Greiner # T-3101-4), in 50 μL/well RPMI (phenol red free), 10% FBS (Charcoal stripped), containing L-glutamine. On day 2, compounds were prepared at 2 compound source concentrations: 100 μM and 1 μM (ultimately to give 2 overlapping titration curves), in a Labcyte low dead volume plate, 10 μL/well, and 10 μL of DMSO in designated wells for backfill, and 5 μM Fulvestrant (control compound) in designated wells. Compounds and controls were dispensed using a Labcyte Echo acoustic dispenser to dispense compounds with a predefined serial dilution (1.8×, 10 point, in duplicate) and appropriate backfill and control compounds (final total volume transferred was 417.5 nL and compound dispense volume ranges from 2.5 nL to 417.5 nL; 0.84% DMSO (v/v) final), ultimately producing a concentration range from 0.05 nM to 835 nM. Cell plates were incubated at 37° C., for 4 hours. Fixation and permeabilization were carried out using a Biotek EL406 plate washer and dispenser as follows. Cells were fixed by addition of 15 μL of 16% paraformaldehyde (Electron Microscopy Sciences #15710-S) directly to the 50 μL cell culture medium in each well using the peristaltic pump 5 μL cassette on a Biotek EL406 (final concentration of formaldehyde was 3.7% w/v). Samples were incubated 30 minutes. Well contents was aspirated and 50 μL/well of Phosphate Buffered Saline (PBS) containing 0.5% w/v bovine serum albumen, 0.5% v/v Triton X-100 (Antibody Dilution Buffer) was added to each well. Samples were incubated for 30 minutes. Well contents were aspirated and washed 3 times with 100 μL/well of PBS. Immunofluorescence staining of estrogen receptor alpha (ESR1) was carried out using a Biotek EL406 plate washer and dispenser as follows. The well supernatant was aspirated from the wells and 25 μL/well of anti-ESR1 mAb (F10) (Santa Cruz sc-8002) diluted 1:1000 in Antibody Dilution Buffer was dispensed. Samples were incubated for 2 hours at room temperature. Samples were washed 4 times with 100 μL/well of PBS. 25 uL (microliters)/well of secondary antibody solution (Alexafluor 488 conjugate anti-mouse IgG (LifeTechnologies # A21202) diluted 1:1000 and Hoechst 33342 1 μg/ml diluted in Antibody Dilution Buffer) were dispensed into each well. Samples were incubated for 2 hours at room temperature. Samples were washed 3 times with 100 μL/well of PBS using a Biotek EL406. Quantitative fluorescence imaging of ESR1 was carried out using a Cellomics Arrayscan V (Thermo). […]

Compound	ER-alpha MCF7HCS Sinf
C[C@@H]1Cc2c([nH]c3ccccc23)[C@]2(Cc3ccc(OC4CN(CCCF)C4)cc3C2)N1CC(F)(F)F [Example 140]	−15%
C[C@@H]1Cc2[nH]c3ccccc3c2[C@@H](c2c(F)cc(NC3CN(CCCF)C3)cc2F)N1CC(F)(F)CO (single isomer, unassigned) [Example 155]	−97.4%
C[C@@H]1Cc2c([nH]c3ccccc23)[C@]2(CCc3cc(OCCN4CC(CF)C4)ccc32)N1CC(F)(F)F [Example 114, (1R,3′R)-5-(2-(3-(fluoromethyl)azetidin-1-yl)ethoxy)-3′-methyl-2′-(2,2,2-trifluoroethyl)-2,2′,3,3′,4′,9′-hexahydrospiro [indene-1,1′-pyrido [3,4-b]indole]]	−96.6%
C[C@H]1Cc2[nH]c3ccccc3c2[C@H](c2c(F)cc(NC3CN(CCCF)C3)cc2F)N1CC(F)(F)CO (single isomer, unassigned) [Example 154]	−30%
C[C@@H]1Cc2[nH]c3ccccc3c2[C@@H](c2c(F)cc(OC3CN(CCCF)C3)cc2F)N1CC(F)(F)CO (relative stereo) [Example 144, trans-3-(1-(2,6-difluoro-4-(1-(3-fluoropropyl)azetidin-3-yloxy)phenyl)-3-methyl-3,4-dihydro-1H-pyrido[4,3-b]indol-2(5H)-yl)-2,2-difluoropropan-1-ol]	−98.8%
C[C@@H]1Cn2c(cc3ccccc32)[C@@H](c2c(F)cc(NC3CN(CCCF)C3)cc2F)N1CC(F)(F)F [Example 146, N-(3,5-Difluoro-4-((1R,3R)-3-methyl-2-(2,2,2-trifluoroethyl)-1,2,3,4-tetrahydropyrazino[1,2-a]indol-1-yl)phenyl)-1-(3-fluoropropyl)azetidin-3-amine]	−100%
C[C@@H]1Cc2c([nH]c3ccccc23)[C@@]2(CCc3cc(OCCN4CC(CF)C4)ccc32)N1CC(F)(F)F [Example 115, (1S,3′R)-5-(2-(3-(fluoromethyl)azetidin-1-yl)ethoxy)-3′-methyl-2′-(2,2,2-trifluoroethyl)-2,2′,3,3′,4′,9′-hexahydrospiro [indene-1,1′-pyrido [3,4-b]indole]]	−98%

Further lines, results first:

ER-alpha MCF7HCS Sinf	Compound
−93.5%	C[C@@H]1CCc2c([nH]c3ccccc23)[C@@H](c2c(F)cc(OCCN3CC(CF)C3)cc2F)N1CC(C)(C)F [Example 116, (1R,3R)-1-(2,6-difluoro-4-(2-(3-(fluoromethyl)azetidin-1-yl)ethoxy)phenyl)-2-(2-fluoro-2-methylpropyl)-3-methyl-1,2,3,4,5,10-hexahydroazepino[3,4-b]indole]
−79%	C[C@H]1Cc2[nH]c3ccccc3c2[C@H](c2c(F)cc(OCCN3CC(CF)C3)cc2F)N1CC(F)(F)CO (single isomer, unassigned) [Example 148]
−95.7%	C[C@@H]1Cc2[nH]c3ccccc3c2[C@@H](c2c(F)cc(OCCN3CC(CF)C3)cc2F)N1CC(F)(F)CO (single isomer, unassigned) [Example 147]
−35%	CC(C)(F)C(=O)N1CCCc2c([nH]c3ccccc23)[C@H]1c1c(F)cc(OCCN2CC(CF)C2)cc1F [Example 106, (R)-1-(1-(2,6-difluoro-4-(2-(3-(fluoromethyl)azetidin-1-yl)ethoxy)phenyl)-3,4,5,10-tetrahydroazepino[3,4-b]indol-2(1H)-yl)-2-fluoro-2-methylpropan-1-one]

Same assay, conditions: 4 hours, plateau of the maximal effect, DMSO and fulvestrant define 0% and 100% change in ESR1, Table 1b

ERalpha (WT) MCF7HCS (Sinf)	Compound
−96	C[C@@H]1Cc2oc3ccccc3c2[C@@H](c2c(F)cc(OCCN3CC(CF)C3)cc2F)N1CC(C)(C)F (stereo in doubt) [Example 167, 1-(2,6-difluoro-4-(2-(3-(fluoromethyl)azetidin-1-yl)ethoxy)phenyl)-2-(2-fluoro-2-methylpropyl)-3-methyl-1,2,3,4-tetrahydrobenzofuro [3,2-c]pyridine]
